Experimental findings from ChEMBL document CHEMBL1136081, “Structure-activity relationships of novel anti-malarial agents. Part 7: N-(3-benzoyl-4-tolylacetylaminophenyl)-3-(5-aryl-2-furyl)acrylic acid amides with polar moieties” (Bioorg Med Chem Lett, 2003) are described below.

The subject of the assay is Plasmodium falciparum. In words: Inhibition against Plasmodium falciparum Dd2 in erythrocytes in semiautomated micro dilution assay. It counts as functional, organism-based.

Compound `CC(=O)c1ccc(-c2ccc(/C=C/C(=O)Nc3ccc(NC(=O)Cc4ccc(C)cc4)c(C(=O)c4ccccc4)c3)o2)cc1` showed an IC50 of 67 nM.

Consider `COC(=O)c1ccc(-c2ccc(/C=C/C(=O)Nc3ccc(NC(=O)Cc4ccc(C)cc4)c(C(=O)c4ccccc4)c3)o2)cc1`, for which half-maximal inhibition (IC50) required 170 nM.

For `Cc1ccc(CC(=O)Nc2ccc(NC(=O)/C=C/c3ccc(-c4ccc(N)cc4)o3)cc2C(=O)c2ccccc2)cc1`, the IC50 was found to be 260 nM.

Take `CCS(=O)(=O)c1ccc(-c2ccc(/C=C/C(=O)Nc3ccc(NC(=O)Cc4ccc(C)cc4)c(C(=O)c4ccccc4)c3)o2)cc1`: half-maximal inhibition (IC50) was put at 60 nM.

Turning to `Cc1ccc(CC(=O)Nc2ccc(NC(=O)/C=C/c3ccc(-c4ccc(NC=O)cc4)o3)cc2C(=O)c2ccccc2)cc1`, half-maximal inhibition (IC50) was put at 280 nM.

`CC(=O)Nc1ccc(-c2ccc(/C=C/C(=O)Nc3ccc(NC(=O)Cc4ccc(C)cc4)c(C(=O)c4ccccc4)c3)o2)cc1` returned an IC50 of 560 nM.

Turning to `Cc1ccc(CC(=O)Nc2ccc(NC(=O)/C=C/c3ccc(-c4ccc(C(F)(F)F)cc4)o3)cc2C(=O)c2ccccc2)cc1`, the IC50 came out at 77 nM.

`Cc1ccc(CC(=O)Nc2ccc(NC(=O)/C=C/c3ccc(-c4ccc(S(C)(=O)=O)cc4)o3)cc2C(=O)c2ccccc2)cc1` displayed an IC50 of 37 nM.

The compound `Cc1ccc(CC(=O)Nc2ccc(NC(=O)/C=C/c3ccc(-c4ccc(S(N)(=O)=O)cc4)o3)cc2C(=O)c2ccccc2)cc1` showed an IC50 of 200 nM.

`Cc1ccc(CC(=O)Nc2ccc(NC(=O)/C=C/c3ccc(-c4ccc(C#N)cc4)o3)cc2C(=O)c2ccccc2)cc1` came in with an IC50 of 220 nM.

In the case of `Cc1ccc(CC(=O)Nc2ccc(NC(=O)/C=C/c3ccc(-c4ccc(C(N)=O)cc4)o3)cc2C(=O)c2ccccc2)cc1`, the half-inhibitory concentration (IC50) is 560 nM.
